Patent publication USRE47689E1, “Compounds for treating spinal muscular atrophy” (PTC Therapeutics, Inc., priority 2011, dated 2019)

Tests used:
[1] = system: SMN2 minigene (full length SMN2 minigene mRNA containing SMN2 exon 7); assay: SMN2 minigene mRNA splicing RT-qPCR assay in cultured cells; format: cell-based, human; settings: HEK293H cells stably transfected with SMN2-A minigene, 24 hours, 7-point concentration curve, 1.5-fold relative to vehicle-treated cells; for EC (1.5-fold): Homo sapiens, HEK293-H, read-out: EC1.5x for production of full length SMN2 mRNA
Protocol: The reverse transcription-quantitative PCR-based (RT-qPCR) assay is used to quantify the level of the full length SMN2 minigene mRNA containing SMN2 exon 7 in a HEK293H cell line stably transfected with said minigene and treated with a test compound.
Protocol. HEK293H cells stably transfected with the SMN2-A minigene construct described above (10,000 cells/well) are seeded in 200 μL of cell culture medium (DMEM plus 10% FBS, with 200 μg/mL hygromycin) in 96-well flat-bottom plates and the plate is immediately swirled to ensure proper dispersal of cells, forming an even monolayer of cells. Cells are allowed to attach for at least 4-6 hours. […] A solution of test compound (1 μL, 200× in DMSO) is added to each cell-containing well and the plate is incubated for 24 hours in a cell culture incubator (37° C., 5% CO2, 100% relative humidity). 2 replicates are prepared for each test compound concentration. The cells are then lysed in Cells-To-Ct lysis buffer and the lysate is stored at −80° C.
The combination of these three oligonucleotides detects only SMN1 or SMN2 minigenes (RT-qPCR) and will not detect endogenous SMN1 or SMN2 genes.
The SMN forward and reverse primers are used at final concentrations of 0.4 μM.
The SMN2-minigene GAPDH mix (15 μL total volume) is prepared by combining 7.5 μL of 2×RT-PCR buffer, 0.4 μL of 25×RT-PCR enzyme mix, 0.75 μL of 20×GAPDH primer-probe mix, 4.0075 μL of water, 2 μL of 10-fold diluted cell lysate, 0.06 μL of 100 μM SMN forward primer, 0.06 μL of 100 μM SMN reverse primer, and 0.225 μL of 100 μM SMN probe.
PCR is carried out at the following temperatures for the indicated time: Step 1: 48° C. (15 min); Step 2: 95° C. (10 min); Step 3: 95° C. (15 sec); Step 4: 60° C. (1 min); then repeat Steps 3 and 4 for a total of 40 cycles.
Each reaction mixture contains both SMN2-A minigene and GAPDH primers/probe sets (multiplex design), allowing simultaneous measurement of the levels of two transcripts.
Two SMN spliced products are generated from the SMN2 minigene. The first spliced product containing exon 7, corresponding to full length SMN2 mRNA, is called SMN2mini FL. The second one lacking exon 7 is called SMN2mini Δ7.
The amplification efficiency E is calculated from the slope of the amplification curve for SMN2mini FL and GAPDH individually. The abundances of SMN2mini FL and GAPDH are then calculated as […], where Ct is the threshold value for each amplicon. The abundance of SMN2mini FL is normalized to GAPDH abundance. The normalized SMN2mini FL abundance from test compound-treated samples is then divided by normalized SMN2mini FL abundance from vehicle-treated cells to determine the level of SMN2 FL mRNA relative to vehicle control.
An EC1.5x for production of full length SMN2 mRNA between >3 μM and ≤30 μM is indicated by one star (*), an EC1.5x between >1 μM and ≤3 μM is indicated by two stars (**), an EC1.5x between >0.3 μM and ≤1 μM is indicated by three stars (***), an EC1.5x between >0.1 μM and ≤0.3 μM is indicated by four stars (****) and an EC1.5x≤0.1 μM is indicated by five stars (*****).

Smn protein = Smn protein assay in cultured cells (SMN HTRF); format: cell-based, human; settings: 48 hours; for maximum fold (Fold) increase of Smn protein: SMA patient fibroblast cells, 7-point concentration data, fold increase relative to vehicle control (SMN HTRF); for EC1.5x (concentration giving 1.5-fold Smn protein increase): SMA Type 1 patient fibroblast cells (GM03813), 7-point concentration curve, SMN HTRF, concentration producing 1.5 times Smn protein vs DMSO vehicle control, read-out: EC1.5x for Smn protein expression
Protocol: The SMN HTRF (homogeneous time resolved fluorescence) assay is used to quantify the level of Smn protein in SMA patient fibroblast cells treated with test compounds.
Protocol. Cells are thawed and cultured in DMEM-10% FBS for 72 hours. Cells are trypsinized, counted and resuspended to a concentration of 25,000 cells/mL in DMEM-10% FBS. […] 1 μL of test compound solution is transferred to cell-containing wells and cells are incubated for 48 hours in a cell culture incubator (37° C., 5% CO2, 100% relative humidity). Triplicate samples are set up for each test compound concentration. After 48 hours, the supernatant is removed from the wells and 25 μL of the RIPA lysis buffer, containing protease inhibitors, is added to the wells and incubated with shaking at room temperature for 1 hour. 25 μL of the diluent is added and then 35 μL of the resulting lysate is transferred to a 384-well plate, where each well contains 5 μL of the antibody solution (1:100 dilution of anti-SMN d2 and anti-SMN kryptate in SMN reconstitution buffer). The plate is centrifuged for 1 minute to bring the solution to the bottom of the wells, then incubated overnight at room temperature. Fluorescence for each well of the plate at 665 nm and 620 nm is measured on an EnVision multilabel plate reader (Perkin-Elmer).
The normalized fluorescence signal is calculated for each sample, Blank and vehicle control well by dividing the signal at 665 nm by the signal at 620 nm. Normalizing the signal accounts for possible fluorescence quenching due to the matrix effect of the lysate. The ΔF value (a measurement of Smn protein abundance) for each sample well is calculated by subtracting the normalized average fluorescence for the Blank control wells from the normalized fluorescence for each sample well and then dividing this difference by the normalized average fluorescence for the Blank control wells. The resulting ΔF value for each sample well represents the Smn protein abundance from test compound-treated samples. The ΔF value for each sample well is divided by the ΔF value for the vehicle control wells to calculate the fold increase in Smn protein abundance relative to the vehicle control.
An EC1.5x for Smn protein expression between >3 μM and ≤10 μM is indicated by one star (*), an EC1.5x between >1 and ≤3 μM is indicated by two stars (**), an EC1.5x between >0.3 μM and ≤1 μM is indicated by three stars (***) and an EC1.5x≤0.3 μM is indicated by four stars (****).

Compound | EC1.5x for production of full length SMN2 mRNA [1] | maximum fold (Fold) increase of Smn protein (Smn protein) | EC (1.5-fold) [1] [µM] | EC1.5x (concentration giving 1.5-fold Smn protein increase) (Smn protein) [nM]
CN(C)[C@H]1[C@@H]2CN(c3ccc4cc(-c5cn6cccnc6n5)c(=O)oc4c3)C[C@@H]21 [Compound 439, 7-[(1R,5S,6s)-6-(dimethylamino)-3-azabicyclo[3.1.0]hex-3-yl]-3-(imidazo[1,2-a]pyrimidin-2-yl)-2H-chromen-2-one] | * (between >3 μM and ≤30 μM) | ** (fold increase between >1.2 and ≤1.35) | – | –
CC(=O)O.Cc1ccn2cc(-c3cc4ccc(N(C)C5CCN(Cc6ccccc6)C5)cc4oc3=O)nc2n1 (centres unmarked) [Compound 377, 7-[(1-benzylpyrrolidin-3-yl)(methyl)amino]-3-(7-methylimidazo[1,2-a]pyrimidin-2-yl)-2H-chromen-2-one acetate] | – | * (maximum fold increase of ≤1.2) | 0.3 to 1 | –
Cl.O=c1oc2cc(C3CCNCC3)ccc2cc1-c1nc2c(Cl)cccc2s1 [Cpd 18, 3-(4-chloro-1,3-benzothiazol-2-yl)-7-(piperidin-4-yl)-2H-chromen-2-one hydrochloride] | – | * (maximum fold increase of ≤1.2) | 0.3 to 1 | –
CCN1CCN(c2ccc3cc(-c4cn5cc(C)nc(C)c5n4)c(=O)oc3c2)CC1C (centres unmarked) [Compound 852, 3-(6,8-dimethylimidazo[1,2-a]pyrazin-2-yl)-7-(4-ethyl-3-methylpiperazin-1-yl)-2H-chromen-2-one] | – | **** (fold increase between >1.5 and ≤1.65) | < 0.1 | < 300
COc1ccc(-c2cc3ccc(N4CCNC[C@@H]4C)cc3oc2=O)cc1OC [Compound 472, 3-(3,4-dimethoxyphenyl)-7-[(2S)-2-methylpiperazin-1-yl]-2H-chromen-2-one] | – | * (maximum fold increase of ≤1.2) | 1 to 3 | –
Cc1cc2sc(-c3cc4ccc(N5CCNCC5)cc4oc3=O)cc2c(C)n1 [Compound 817, 3-(4,6-dimethylthieno[3,2-c]pyridin-2-yl)-7-(piperazin-1-yl)-2H-chromen-2-one] | – | ** (fold increase between >1.2 and ≤1.35) | < 0.1 | –
COCCNCCOc1ccc2cc(-c3cn4cc(C)nc(C)c4n3)c(=O)oc2c1 [Compound 960, 3-(6,8-dimethylimidazo[1,2-a]pyrazin-2-yl)-7-{2-[(2-methoxyethyl)amino]ethoxy}-2H-chromen-2-one] | – | *** (fold increase between >1.35 and ≤1.5) | < 0.1 | 1000 to 3000
Cc1cn2cc(-c3cc4ccc(C5CCN(C)CC5)cc4oc3=O)nc2c(C)n1 [Compound 748, 3-(6,8-dimethylimidazo[1,2-a]pyrazin-2-yl)-7-(1-methylpiperidin-4-yl)-2H-chromen-2-one] | – | ***** (fold increase >1.65) | < 0.1 | < 300
Cc1cn2cc(-c3cc4ccc(N5CC6(CN(C)C6)C5)cc4oc3=O)nc2c(C)n1 [Compound 972, 3-(6,8-dimethylimidazo[1,2-a]pyrazin-2-yl)-7-(6-methyl-2,6-diazaspiro[3.3]hept-2-yl)-2H-chromen-2-one] | – | *** (fold increase between >1.35 and ≤1.5) | 0.3 to 1 | 3000 to 10000
C[C@H]1CN(c2ccc3cc(-c4ccc5nccn5c4)c(=O)oc3c2)CCN1 [Compound 981, 3-(imidazo[1,2-a]pyridin-6-yl)-7-[(3S)-3-methylpiperazin-1-yl]-2H-chromen-2-one] | – | **** (fold increase between >1.5 and ≤1.65) | 0.1 to 0.3 | 1000 to 3000
O=c1oc2cc(N3CCNCC3)ccc2cc1-c1ccc2nccn2c1 [Compound 980, 3-(imidazo[1,2-a]pyridin-6-yl)-7-(piperazin-1-yl)-2H-chromen-2-one] | – | *** (fold increase between >1.35 and ≤1.5) | 0.3 to 1 | –
3-(6-chloroimidazo[1,2-a]pyrimidin-2-yl)-7-(piperazin-1-yl)-2H-chromen-2-one [Compound 348] | ** (between >1 μM and ≤3 μM) | * (maximum fold increase of ≤1.2) | – | –
Cc1nc2ccc(-c3cc4ccc(C5=CCNCC5)cc4oc3=O)nn2c1C1=CCNCC1 [Cpd 845, 3-[2-methyl-3-(1,2,3,6-tetrahydropyridin-4-yl)imidazo[1,2-b]pyridazin-6-yl]-7-(1,2,3,6-tetrahydropyridin-4-yl)-2H-chromen-2-one] | – | * (maximum fold increase of ≤1.2) | – | –
Cc1cn2cc(-c3cc4ccc(C5CCN(C6COC6)CC5)cc4oc3=O)nc2cn1 [Compound 878, 3-(6-methylimidazo[1,2-a]pyrazin-2-yl)-7-[1-(oxetan-3-yl)piperidin-4-yl]-2H-chromen-2-one] | – | ***** (fold increase >1.65) | < 0.1 | 300 to 1000
CN1CCN(C(=O)c2ccc3cc(-c4nc5c(Cl)cccc5s4)c(=O)oc3c2)CC1 [Cpd 28, 3-(4-chloro-1,3-benzothiazol-2-yl)-7-[(4-methylpiperazin-1-yl)carbonyl]-2H-chromen-2-one] | – | * (maximum fold increase of ≤1.2) | 3 to 30 | –
Cc1cn2cc(-c3cc4ccc(N5CCN[C@@H](C)C5)cc4oc3=O)ccc2n1 [Compound 664, 3-(2-methylimidazo[1,2-a]pyridin-6-yl)-7-[(3S)-3-methylpiperazin-1-yl]-2H-chromen-2-one] | – | ***** (fold increase >1.65) | < 0.1 | < 300
